Patent publication US5912164A, “Stereoselective hydrolysis of chiral carboxylic acid esters using esterase from ophiostoma or ceratocystis” (Laboratorios Menarini S.A., priority 1993, dated 1999)
Each block holds one molecule with its values, some of them ahead of it.

Assays:
[1] = test system: cloned AJ3 esterase in recombinant E. coli CS62 lysate; experiment: Hydrolysis of racemic butyrate ester of 2-methoxycyclohexanol by lysate of CS62; type: biochemical, Ophiostoma novo-ulmi; conditions: 41 hours, 25° C., pH 8.0
Experimental: Cells (grown as per Example 7) were resuspended at 5% w/v in 100 mM TRIS, pH 8, and lysed by sonication for 15 minutes (10 seconds on, 10 seconds off cycle) at an amplitude of 20 μm in a Soniprep 150. The lysate was centrifuged to remove cell debris and the supernatant used in biotransformation.
10 g of the racemic butyrate ester of 2-methoxycyclo-hexanol was mixed with 100 ml of 100 mm TRIS, pH 8, by magnetic stirring. 20 ml of the above lysate of CS62 was added. The temperature of the biotransformation was controlled at 25° C. and the pH at 8.0 by the addition of 1M NaOH. Samples were removed and monitored for 2-methoxycyclohexanol formation. NaCl was added to saturation to 1 ml sample which was then extracted into 1 ×5 volumes of toluene. The toluene layer was removed and dried by the addition of MgSO4. The sample was then analysed by GC. A 15 m DB-5 column with 0.25 μm film was used with helium as the carrier, at 55.2 kPa, the oven temperature was 60° C. for 1 minute, raised at 10° C./min to 150° C., and this temperature was then held for a further minute.
The ee of the 2-methoxycyclohexanol formed was determined following derivatisation with trifluoroacetic anhydride (TFAA). 20 μl of TFAA was added to 1 ml of the toluene-extracted sample which was then allowed to stand at ambient temperature for 30 minutes. […]

[2] = test system: AJ3 crude enzyme solution (esterase); experiment: Hydrolysis of racemic ketoprofen esters in 2-phase biotransformations; type: biochemical, Ophiostoma novo-ulmi; conditions: ester 20 g/l in cyclohexane, 24 hours, 25° C.
Experimental: Various esters of racemic ketoprofen were dissolved in cyclohexane to a concentration of 20 g/l. The esters used were methyl, ethyl, n-propyl, n-butyl, n-pentyl, n-hexyl. In the case of methyl ester, a suspension was prepared due to low solubility of ester in cyclohexane.
To 5 ml aliquots of crude enzyme solution in glass vials was added 2 ml of each of the six racemic ketoprofen ester solutions above. […] Reactions were conducted with shaking for 24 hours at 25° C.

[3] = test system: esterase of AJ3 (Ophiostoma novo-ulmi), crude enzyme solution; experiment: Hydrolysis of racemic ethyl naproxen in cyclohexane by crude enzyme lysate of AJ3; type: biochemical; conditions: 72 hours, 23° C.
Experimental: This culture was grown with shaking at 30° C. for 48 hours. 10 ml was then transferred into 90 ml fresh medium in a 1 liter shake flask and grown for a further 8 hours at 30° C. with shaking. This flask was used to inoculate a 2.8 1 laboratory fermenter with 1.5 1 medium plus 5 g/l glucose and 0.5 ml/l of a silicone/PPG-based antifoam (XF0371, Ivanhoe Chemicals, Ill., U.S.A.). This fermenter was operated for 48 hours with agitation and aeration, controlled to maintain a DOT >50% air saturation and temperature and pH at 30° C. and 6.0 respectively.
At the completion of the fermentation the cells were harvested by centrifugation and the pellet resuspended at 10% w/v (based on wet cell weight) in lysis buffer, i.e. 0.1M sodium carbonate in 5% Triton X-100 aqueous solution. Lysis was carried out overnight at 8° C. with shaking after which the enzyme activity-containing lysate was separated from the cell debris by centrifugation. The lysate was then diluted 50% in lysis buffer, prior to its being used to carry out resolution.
Racemic ethyl naproxen (ethyl 6-methoxy-α-methyl-2-naphthaleneacetate) was dissolved in cyclohexane to a concentration of 19 mg/ml. 2 ml of this solution was then mixed with 5 ml of prepared crude enzyme solution in a glass vial and reacted with shaking for 72 hours at 23° C.

[4] = test system: cloned AJ3 esterase in recombinant E. coli CS62 lysate; experiment: Hydrolysis of racemic ethyl naproxen by cell-free lysate of recombinant strain CS62; type: biochemical, Ophiostoma novo-ulmi; conditions: 1 hour, 25° C.
Experimental: Cells of CS62 grown and stored as described above were used to provide enzyme for use in the hydrolysis of ethyl naproxen. Cells were resuspended at 10% w/v in 0.1M sodium carbonate, pH 10, and lysed by sonication for 10 minutes (10 seconds on, 10 seconds off cycles) at 4° C. The enzyme lysate was then centrifuged to obtain a cell-free supernatant solution.
Racemic ethyl naproxen was dissolved in cyclohexane to a concentration of 100 g/l. 200 μl of this solution was added to 1 ml enzyme solution and shaken for 1 hour at 25° C. The phases were then separated and the aqueous phase analysed (by reverse phase HPLC) for naproxen accumulation.

Cells of AJ3 = experiment: Whole-broth biotransformation of racemic ethyl ketoprofen by growing cells of AJ3; type: cell-based, Ophiostoma novo-ulmi; conditions: 20 g/l ester in broth, 120 hours
Experimental: This was shaken for 30 hours at 23° C. and then 2.5 ml transferred into a second 250 ml baffled flask containing 30 ml of the same medium as in Example 1. Following growth for 40 hours, at 23° C. with shaking, racemic ethyl ketoprofen was added to the broth to a concentration of 20 g/l.

[5] = Screen of 12 commercially-available lipase/esterase preparations on the butyrate ester; type: biochemical; conditions: racemic butyrate ester of 2-methoxycyclohexanol as substrate
Excerpt: The stereo-specific activity of this biocatalyst is considered unusual. […] This is potentially advantageous in that it enables access to the (S)-enantiomer as the alcohol without having to exceed 50% conversion.

Molecule: CCCC(=O)OC1CCCCC1OC (racemic) [butyrate ester of 2-methoxycyclo-hexanol]
conversion of the substrate [1]: 44% | ee of the 2-methoxycyclohexanol in favour of the (S)-enantiomer [1]: 96%

Molecule: CCCCOC(=O)C(C)c1cccc(C(=O)c2ccccc2)c1 (racemic) [n-BUTYL]
ACID PRODUCED [2]: 0.3 mg/mL | CONVERSION [2]: 8.0%

Molecule: CCOC(=O)C(C)c1ccc2cc(OC)ccc2c1 (racemic) [ethyl naproxen, ethyl 6-methoxy-α-methyl-2-naphthaleneacetate]
enantiomeric purity of naproxen, (S) enantiomer (equivalent to the ee) [3]: 96.5% | ee (enantiomeric excess) of naproxen in favour of the (S) enantiomer ([3]; HPLC): 93% | CONVERSION ([3]; cyclohexane 2-phase): about 40% | accumulation of naproxen in aqueous phase ([3]; ester 19 mg/ml in cyclohexane, 2 ml + 5 ml crude enzyme): 2.76 mg/mL | CONVERSION [4]: about 26% | ee in favour of the S-enantiomer [4]: > 95% | naproxen accumulated in aqueous phase ([4]; ester 100 g/l in cyclohexane, 200 μl + 1 ml enzyme): 5.3 g/L

Molecule: CCCCCCOC(=O)C(C)c1cccc(C(=O)c2ccccc2)c1 (racemic) [n-HEXYL]
ACID PRODUCED [2]: 0.09 mg/mL | CONVERSION [2]: 2.3%

Molecule: CCOC(=O)C(C)c1cccc(C(=O)c2ccccc2)c1 (racemic) [ethyl ketoprofen]
enantiomeric excess of ketoprofen acid formed, in favour of the (S)-enantiomer (Cells of AJ3): 96% | hydrolysis of the added ester (Cells of AJ3; HPLC): 18.2%

Molecule: COC(=O)C(C)c1cccc(C(=O)c2ccccc2)c1 (racemic) [METHYL]
ACID PRODUCED [2]: 1.7 mg/mL | CONVERSION [2]: 42.3% | EE (%)(S)-enantiomer [2]: 90%

Continued, values first:

ACID PRODUCED [2]: 0.18 mg/mL | CONVERSION [2]: 4.4%
Molecule: CCCCCOC(=O)C(C)c1cccc(C(=O)c2ccccc2)c1 (racemic) [n-PENTYL]

ACID PRODUCED [2]: 1.0 mg/mL | CONVERSION [2]: 25.6% | EE (%)(S)-enantiomer [2]: 86%
Molecule: CCCOC(=O)C(C)c1cccc(C(=O)c2ccccc2)c1 (racemic) [n-PROPYL]

stereo-specificity of hydrolysis [5]: specificity for the (R)-enantiomer
B1: porcine pancreatic lipase: commercially-available lipase/esterase preparation (protein, UniProt P00591 1-450, looked up)
Pancreatic triacylglycerol …: SEVCFPRLGCFSDDAPWAGIVQRPLKILPWSPKDVDTRFLLYTNQNQNNYQELVADPSTITNSNFRMDRKTRFIIHGFIDKGEEDWLSNICKNLFKVESVNCICVDWKGGSRTGYTQASQNIRIVGAEVAYFVEVLKSSLGYSPSNVHVIGHSLGSHAAGEAGRRTNGTIERITGLDPAEPCFQGTPELVRLDPSDAKFVDVIHTDAAPIIPNLGFGMSQTVGHLDFFPNGGKQMPGCQKNILSQIVDIDGIWEGTRDFVACNHLRSYKYYADSILNPDGFAGFPCDSYNVFTANKCFPCPSEGCPQMGHYADRFPGKTNGVSQVFYLNTGDASNFARWRYKVSVTLSGKKVTGHILVSLFGNEGNSRQYEIYKGTLQPDNTHSDEFDSDVEVGDLQKVKFIWYNNNVINPTLPRVGASKITVERNDGKVYDFCSQETVREEVLLTLNPC
